Assay results: PubChem BioAssay (NCI)
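Grown in 96-well plates, cells were treated for 48 hours with each compound at five concentrations. Insufficient inhibition: endpoint recorded as highest concentration tested. Abbreviation: GI50, concentration required for 50% inhibition of growth. TGI: total growth inhibition.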

Tests used:
Assay in all cases: DTP human tumour cell line panel, 48 h
[1] = test system: U251 CNS
[2] = test system: OVCAR-5 ovarian
[3] = test system: SF-268 CNS
[4] = test system: HCT-15 colon
[5] = test system: COLO 205 colon
[6] = test system: UO-31 renal
[7] = test system: DU-145 prostate

| SMILES | TGI [1] [µM] | TGI [2] [µM] | TGI [3] [µM] | TGI [4] [µM] | TGI [5] [µM] | TGI [6] [µM] | TGI [7] [µM] | GI50 [1] [µM] | GI50 [2] [µM] | GI50 [3] [µM] | GI50 [4] [µM] | GI50 [5] [µM] | GI50 [6] [µM] | GI50 [7] [µM] |
| --- | --- | --- | --- | --- | --- | --- | --- | --- | --- | --- | --- | --- | --- | --- |
| CCc1[nH]c(=O)nc(N)c1-c1ccc(N2CCCCC2)c([N+](=O)[O-])c1 | > 100 | > 100 | > 100 | > 100 | > 100 | > 100 | > 100 |  |  |  |  |  |  |  |
| CCOC(=O)c1c(CN2CCN(c3ccccc3)CC2)n(-c2ccccc2)c2cc(Br)c(O)cc12 | 19 | 44.8 | 41.4 | 38.6 | 41.7 | 23.1 | 28.2 | 6.43 | 9.98 | 9.63 | 11.3 | 21.3 | 8.99 | 12.5 |
| CCN(CC)c1ccc(C(=N)c2ccc(N(CC)CC)cc2)cc1 | 2.16 | 6.07 | 2.67 | 2.28 | 1.32 | 2.64 | 2.65 | 0.542 | 1.53 | 0.602 | 0.416 | 0.361 | 0.557 | 0.467 |
| Cc1cc(SCC(=O)c2ccccc2)nc2ccccc12 | > 100 | > 100 | > 100 | > 100 | > 100 | > 100 | > 100 |  |  |  |  |  |  |  |
| O=C(N/N=C/c1cccc(O)c1O)c1ccccc1 | > 100 | > 100 | > 100 | > 100 | > 55.7 | 14 | > 100 | 0.569 | 3.71 | 0.567 | 0.466 | 1.97 | 0.434 | 1.15 |
| O=C(Nc1ccc(Cl)cc1)c1cc(-c2ccc(F)cc2)c2sc(=O)[nH]c2n1 | 4.71 | 7.9 | 17.2 | 10.1 | 3.82 | 3.89 | 28.9 | 1.5 | 2.34 | 2.59 | 1.73 | 1.76 | 1.61 | 3.7 |
| CCOC(=O)Sc1ncnc2nc[nH]c12 | > 100 | > 100 | > 100 | > 100 | 46.4 | > 100 | > 100 | 12.9 | 4.49 | 3.89 | 2.86 | 3.92 | 4.14 | 0.586 |
| NC(=S)N/N=C/c1ccc(OC(=O)COc2ccc(Cl)cc2)cn1 | > 100 | > 100 | 21.8 | > 100 | > 100 | 21.5 | 8.65 | 4.24 | 41.6 | 2.28 | 22.9 | 31.8 | 3.24 | 2.46 |
| CC1CN1CC(O)C(O)CN1CC1C (configuration not stated) | > 64.8 | > 85.1 | > 53.5 | 46 | > 38.5 | 10.9 | 9.28 | 1.36 | 13.4 | 0.716 | 4 | 5.45 | 0.932 | 0.48 |
| c1ccc(C2=NNC3c4ccccc4-c4ccccc4N3C2)cc1 (configuration not stated) | > 100 | > 100 | > 100 | > 100 | 37.3 | > 100 | > 100 |  |  |  |  |  |  |  |
| NCCCC[C@@H]1NC(=O)[C@H]2CCCN2C(=O)[C@H](Cc2ccccc2)NC(=O)[C@H](Cc2ccccc2)CNC1=O | > 100 | > 100 | > 100 | > 100 | > 100 | > 100 | > 100 | > 100 | > 100 | > 100 | > 100 | > 100 | > 100 | > 100 |
| Clc1nc(Cl)c2ncn(Cc3cccc(COc4cccc(OCc5cccc(Cn6cnc7c(Cl)nc(Cl)nc76)c5)c4)c3)c2n1 | > 100 | > 100 | > 100 | > 100 | > 100 | > 100 | 42.8 | 36.9 | > 100 | > 100 | 39 | > 100 | 66.4 | 14.2 |
| CC/C=C\C[C@@H]1C/C=C2/C(=O)C=C[C@H]2C/C=C\CCCC(=O)O1 | 1.51 | 3.78 | 3.67 | 0.865 | 1.05 | 2.23 | 1.28 | 0.365 | 1.51 | 1.34 | 0.242 | 0.284 | 0.929 | 0.362 |
| CCCCN=C(N)c1ccc(OCCSCCOc2ccc(C(N)=NCCCC)cc2)cc1 | > 100 | > 100 | > 100 | > 100 | 15 | > 100 | > 100 | 1.6 | 46.1 | 5.32 | > 100 | 3.1 | > 100 | 10.7 |
| COc1cc(NC(=O)c2cc(O)c(CC=C(C)C)c(O)c2)cc2c1O[C@]1(C)CC[C@@H](O)C(C)(C)[C@H]1C2 | 14.8 | 66.7 | 72.6 | 21.3 | 5.5 | 8.18 | 20.5 | 0.846 | 12 | 4.65 | 4.09 | 2.24 | 2.42 | 7.49 |
| Nc1ncc(-c2cnn(CCO)c2)c2scc(-c3ccc(NC(=O)Nc4cccc(F)c4)cc3)c12 | 1.72 | 3 | 9.73 | 14.3 | < 0.0307 | 1.98 | 11.6 | 0.301 | 0.375 | 0.435 | 0.371 | < 0.01 | 0.219 | 0.52 |
| NC(CC(=O)OCc1ccccc1)C(=O)OCc1ccccc1 (configuration not stated) |  | > 100 | > 100 | > 100 | > 100 | > 100 | > 100 |  |  |  |  |  |  |  |
| COc1cc(C2=NN(C(C)=O)C(c3ccc(OC(C)=O)cc3OC(C)=O)O2)c(OC(C)=O)c2ccccc12 (configuration not stated) | 14.8 | > 66.8 | > 24.4 | 25.6 | 10.1 | 7.12 | > 100 | 0.472 | 5.64 | 0.465 | 0.581 | 2.58 | 0.38 | 0.683 |
| COC(=O)Nc1nc2ccc(Oc3ccc(NC(=O)Nc4ccccc4)cc3)cc2[nH]1 | 6.6 | > 14.4 | > 14.5 | > 25 | 0.487 | > 25 | 3.1 | 0.126 | 1.06 | 0.267 | 0.135 | 0.0835 | 1.65 | 0.254 |

| SMILES | TGI [1] [µM] | TGI [2] [µM] | TGI [3] [µM] | TGI [4] [µM] | TGI [5] [µM] | TGI [6] [µM] | TGI [7] [µM] | GI50 [1] [µM] | GI50 [2] [µM] | GI50 [3] [µM] | GI50 [4] [µM] | GI50 [5] [µM] | GI50 [6] [µM] | GI50 [7] [µM] |
| --- | --- | --- | --- | --- | --- | --- | --- | --- | --- | --- | --- | --- | --- | --- |
| COc1cc[nH]c1/C=C1\C(=O)Nc2ccccc21 | > 25 | > 25 | > 25 | > 25 | > 25 | 24.6 | > 25 | 4.17 | 15.3 | 11.2 | 4.85 | 14.1 | 1.69 | 9.37 |
| O=C1c2ccccc2-c2c1c1ccccc1c(=O)n2Cc1ccccc1 | > 100 | > 100 | > 100 | > 100 | > 100 | > 100 | > 100 |  |  |  |  |  |  |  |
| COc1cc(OC)c(/C=C/C(=O)c2c(OC)cccc2OC)c(OC)c1 | > 100 | > 100 | > 42.1 | > 100 |  | > 100 | > 29.3 | 0.592 | 2.17 | 1.14 | 0.482 | 0.619 | 0.899 | 2.01 |
| O=C(CCl)Nc1ccc(Cl)cc1 | 5.26 | 12.9 | 7.66 | 6.33 | 3.61 | 24.1 | 17.4 | 2.22 | 3.57 | 2.72 | 2.27 | 1.98 | 8.07 | 4.92 |
| COC(=O)C(=O)C(C(=O)C(=O)Nc1ccccc1C(N)=O)c1nc2ccc(Cl)cc2[nH]c1=O (configuration not stated) | > 100 | > 100 | > 100 | > 100 | > 100 | > 100 | > 100 |  |  |  |  |  |  |  |
| Fc1cc(F)c(COc2cc(Cn3cnc4c(Cl)nc(Cl)nc43)ccc2C23CC4CC(CC(C4)C2)C3)cc1F | 30.4 | 37.4 | 33.1 | 31.9 | 39.1 | 31.6 | 30.8 | 16.8 | 19.9 | 16.4 | 16 | 17.8 | 17.8 | 17.1 |
| Cc1ccc(C(=NN=C(N)N)c2ccc(C)cc2)cc1 | 1.83 | 13.8 | 6.57 | 8.86 | 1.41 | 9.76 | 1.16 | 0.399 | 1.85 | 0.636 | 0.773 | 0.445 | 1.73 | 0.313 |
| O=C(c1cccc(O)c1O)c1cn(Cc2ccc(F)cc2)c2cccc(O)c12 | 15.2 | 26.4 | 16.2 | 14.8 | 10.7 | 5.24 | 17.3 | 2.95 | 9.04 | 3.51 | 1.16 | 2.77 | 1.14 | 5.1 |
| CC12CCCC(O)C1CCC1=CC3(CCC12)SCCS3 (configuration not stated) | > 10 |  | > 10 | > 10 | > 10 |  | > 10 |  |  |  |  |  |  |  |
| CC(=O)OC1Oc2ccccc2-c2oc(=O)c(-c3cc4ccc(N(C)C)cc4oc3=O)cc21 (configuration not stated) | 23.7 | 30.8 | 32.2 | > 100 | 41.5 | 48.8 | 27.7 | 10.5 | 13.2 | 10.6 | 24.3 | 16.4 | 16.9 | 12 |
| CCS(=O)(=O)c1ccc(OC)c(Nc2ncc(-c3cccc(OC)c3)o2)c1 | > 25 | > 25 | > 25 | > 25 | > 25 | 13.8 | > 25 | 8.09 | 9.03 | 8.84 | 10.6 | 10.3 | 3.4 | 9.99 |
| NC(N)=NCCCn1c2c(c3ccccc3c1=O)C(=O)c1ccccc1-2 | 0.637 | 94.6 | 9.45 |  | 79.7 |  | 22.9 | 0.223 | 25.7 | 1.53 |  | 21.2 |  | 7.59 |
| CCN(CC)CCCC(C)Nc1c(C)cnc2cc(Cl)c(C)cc12 (configuration not stated) | > 100 | 18 | 33.3 | > 68 | > 38.6 | > 78.5 | 27.8 | 12 | 5.56 | 15.3 | 11.7 | 3.96 | 17.5 | 12.8 |
| CCOC(=O)c1cc(/C(=N\O)c2cc(OC)c(OC)c(OC)c2)n2cc(C)cc(C)c12 | 9.32 |  | > 100 | > 100 |  |  | > 100 | 2.64 |  | 3.9 | 2.82 |  |  | 3.67 |
| COc1ccc(C(=O)COc2cccc(/C=C3\COc4ccc5ccccc5c4C3=O)c2)cc1 | > 100 | > 100 | > 100 | > 100 | > 100 | > 100 | > 100 | 5.61 | 12.9 | 7.83 | 7.59 | 16.9 | 20.4 | 4.25 |
| CCN(CC)c1sc(N(CC)CC)c2c1SSSSS2 | 13.2 | 3.2 | 4.53 | > 34.2 |  | 2.88 | 3.37 | 2.76 | 1.52 | 1.96 | 1.24 | 0.937 | 0.867 | 1.8 |
| CN(C)CCNC(=O)c1cccc(C(=O)Nc2ccccc2)c1[N+](=O)[O-] | > 100 | > 100 | > 100 | > 100 | > 100 | > 100 | > 100 |  |  |  |  |  |  |  |
| CCN1C(=O)CNc2ncc(-c3ccc(-c4ncn[nH]4)nc3C)nc21 | 9.64 | 8.96 | 10.2 | 10.9 | 1.72 | 0.599 | 12.7 | 0.289 | 0.169 | 0.235 | 0.202 | 0.16 | 0.0248 | 0.253 |
